Results on 68 compounds are retold here after patent US5196094A, “Separation of 1,1,1-trichloroethane from the lower alcohols by extractive distillation” (priority 1991, dated 1993).

Counter-ions that a name gives are not always drawn.

What all share (format): physicochemical
Series [1] is described as follows: Vapor-liquid equilibrium still, separation of 1,1,1-trichloroethane from methanol.
A short description of series [2]: Vapor-liquid equilibrium still, separation of 1,1,1-trichloroethane from ethanol.
The nature of series [3]: Vapor-liquid equilibrium still, separation of 1,1,1-trichloroethane from 2-butanol.
Series [4] is described as follows: Vapor-liquid equilibrium still, separation of 1,1,1-trichloroethane from isopropanol.
Series [5] in a line: Vapor-liquid equilibrium still, separation of 1,1,1-trichloroethane from n-propanol.
[6] abbreviates: 1,1,1-trichloroethane from methanol, vapor-liquid equilibrium still.
[7] abbreviates: * Brings out Ethanol as Overhead.
[8] abbreviates: 1,1,1-trichloroethane from 2-butanol, vapor-liquid equilibrium still.
Where [9] appears, read: 1,1,1-trichloroethane from ethanol.
Setting [10] is: 1,1,1-trichloroethane from n-propanol, vapor-liquid equilibrium still.

Regarding 1-Methoxy-2-acetoxy propanol, the “Relative Volatility” value in series [1] (setting [6]) was 2.3.
Take `CC(=O)O[C@@H]1C[C@H]2CC[C@]1(C)C2(C)C` (racemic) [Isobornyl acetate]: the “Relative Volatility” value in series [2] (setting [7]) is 1.6; in series [3], 1.7; in series [1], 2.5.
For `COCC(C)OC(C)=O` (centres unmarked) [1-Methoxy-2-acetoxy propane], in series [3] (setting [8]), the “Relative Volatility” value is reported as 2.0.
With `COCC(C)OC(C)=O` (centres unmarked) [1-Methoxy-2-propanol acetate], the “Relative Volatility” value in series [3] (setting [8]) was found to be 4.3; in series [4], 1.7; in series [1], 1.7.
Regarding `COCC(C)O` (centres unmarked) [1-Methoxy-2-propanol], in series [2] (setting [9]), the “Relative Volatility” value stood at 2.9.
In the case of `CN1CCCC1=O` [1-Methyl-2-pyrrolidinone], the entries for the “Relative Volatility” value in series [2] (setting [9]), in series [3] (setting [8]) and in series [1] were 2.5, 3.6 and 2.7, respectively.
For `CCC[N+](=O)[O-]` [1-Nitropropane], the figures for the “Relative Volatility” value in series [5], in series [3] and in series [1] (setting [6]) were 1.3, 1.6 and 2.1, respectively.
With `CC(=O)CC(C)=O` [2,4-Pentanedione], the entries for the “Relative Volatility” value in series [5], in series [3] and in series [1] were 1.6, 1.8 and 2.7, respectively.
Consider `CC(C)CC(=O)CC(C)C` [2,6-Dimethyl-4-heptanone], for which, in series [2] (setting [9]), the “Relative Volatility” value is 1.65.
Take `CCC(CC)CO` [2-Ethyl butanol]: the figures for the “Relative Volatility” value in series [3] (setting [8]) and in series [1] were 3.3 and 1.4, respectively.
For `CCCCC(CC)COC(C)=O` (centres unmarked) [2-Ethyl hexyl acetate], the “Relative Volatility” value in series [3] is 1.6; in series [4], 1.3; in series [1] (setting [6]), 2.0.
For `CCCCCC(C)=O` [2-Heptanone], the “Relative Volatility” value is reported as 1.3 in series [2] (setting [9]), 1.4 in series [3] and 3.2 in series [1] (setting [6]).
As for `CCC(C)COC(C)=O` (centres unmarked) [2-Methyl butyl acetate], the “Relative Volatility” value in series [4] was found to be 1.35.
In the case of `CC(C)[N+](=O)[O-]` [2-Nitropropane], the entries for the “Relative Volatility” value in series [5], in series [3] and in series [1] (setting [6]) were 1.4, 1.6 and 2.0, respectively.
On to `CCCCCCC(C)O` (centres unmarked) [2-Octanol], for which the results for the “Relative Volatility” value in series [3] (setting [8]) and in series [1] (setting [6]) were 2.6 and 2.8, respectively.
Consider `CCCCCCC(C)=O` [2-Octanone], for which the “Relative Volatility” value in series [5] was determined as 1.25.
As to `CCCCCCCCCC(C)=O` [2-Undecanone], in series [2] (setting [9]), the “Relative Volatility” value amounted to 1.4.
In the case of `CC(=O)C(C)(C)C` [3,3-Dimethyl-2-butanone], the results for the “Relative Volatility” value in series [5] and in series [2] (setting [9]) were 1.4 and 1.65, respectively.
Consider `CCCCC(=O)CC` [3-Heptanone], for which the “Relative Volatility” value in series [5] was determined as 1.25.
`CC(C)CCO` [3-Methyl-1-butanol]: the “Relative Volatility” value in series [2] (setting [9]) was 2.9.
Take `CC(=O)OC(C)CC(C)C` (centres unmarked) [4-Methyl pentyl acetate-2]: the figures for the “Relative Volatility” value in series [2] (setting [7]), in series [3] (setting [8]) and in series [1] (setting [6]) were 1.45, 1.7 and 2.9, respectively.
As for `CC(C)CC(C)O` (centres unmarked) [4-Methyl-2-pentanol], the “Relative Volatility” value was 2.1 in series [2] (setting [9]), 3.2 in series [3] (setting [8]) and 4.2 in series [1] (setting [6]).
As for `CC(=O)CC(C)C` [4-Methyl-2-pentanone], the “Relative Volatility” value was determined as 1.4 in series [5] and 1.6 in series [2] (setting [9]).
Take `CC(=O)CCC(C)C` [5-Methyl-2-hexanone]: in series [5] (setting [10]), the “Relative Volatility” value was determined as 1.3.
In the case of `CC(=O)c1ccccc1` [Acetophenone], the “Relative Volatility” value in series [5] was 1.7; in series [2] (setting [9]) it was 1.35; in series [3] it was 3.0; in series [1] (setting [6]), 2.3.
Regarding `N#CCCCCC#N` [Adiponitrile], in series [4], the “Relative Volatility” value is recorded as 1.25.
Turning to `CCCCCOC(C)=O` [Amyl acetate], the “Relative Volatility” value was 1.5 in series [3], 1.4 in series [4] and 2.1 in series [1] (setting [6]).
Consider `COc1ccccc1` [Anisole], for which, in series [2] (setting [7]), the “Relative Volatility” value was 1.25.
Consider `CC(=O)OCc1ccccc1` [Benzyl acetate], for which the “Relative Volatility” value in series [2] (setting [9]) was found to be 1.2; in series [3] (setting [8]), 1.7; in series [4] it was 1.55; in series [1] it was 2.5.
As to `OCc1ccccc1` [Benzyl alcohol], in series [3] (setting [8]), the “Relative Volatility” value stood at 3.5.
For the compound `O=C(OCc1ccccc1)c1ccccc1` [Benzyl benzoate], in series [5] (setting [10]), the “Relative Volatility” value was 1.6.
Take `CC(=O)CC(C)(C)O` [Diacetone alcohol]: the “Relative Volatility” value in series [2] (setting [9]) was 2.7.
Turning to `CCOCCOCCOCC` [Diethylene glycol diethyl ether], the “Relative Volatility” value came to 1.6 in series [5], 1.2 in series [2] (setting [7]), 1.6 in series [3] and 2.7 in series [1].
In the case of `CCOCCOCCOC(C)=O` [Diethylene glycol ethyl ether acetate], the “Relative Volatility” value in series [3] (setting [8]) is listed as 2.1; in series [1] (setting [6]) it was 2.8.
Regarding `CC(C)CC(O)CC(C)C` [Diisobutyl carbinol], in series [3], the “Relative Volatility” value is recorded as 2.2.
With `CC(C)CC(=O)CC(C)C` [Diisobutyl ketone], the figures for the “Relative Volatility” value in series [2] (setting [9]), in series [3] and in series [1] were 1.7, 1.5 and 2.7, respectively.
For the compound `CCOCCC(=O)OCC` [Ethyl 3-ethoxy propionate], the “Relative Volatility” value in series [2] (setting [9]) is on record as 1.6.
Regarding `CCOC(=O)CC(C)=O` [Ethyl acetoacetate], the “Relative Volatility” value amounted to 1.7 in series [2] (setting [9]), 1.8 in series [3] and 2.8 in series [1] (setting [6]).
Regarding `CCOC(=O)c1ccccc1` [Ethyl benzoate], the “Relative Volatility” value in series [2] (setting [9]) was 1.55.
For the compound `CCCC(=O)OCC` [Ethyl butyrate], the “Relative Volatility” value in series [2] (setting [7]) amounted to 1.2; in series [4] it was 1.3.
With `CCOC(=O)CC(C)C` [Ethyl isovalerate], the “Relative Volatility” value in series [2] (setting [9]) came to 1.4; in series [3], 1.6; in series [4], 1.6; in series [1], 2.7.
Take `CCCCC(=O)OCC` [Ethyl n-valerate]: the “Relative Volatility” value in series [2] (setting [9]) is on record as 1.6; in series [3] it was 1.5; in series [4], 1.35; in series [1], 2.7.
As for `CCOC(=O)Cc1ccccc1` [Ethyl phenyl acetate], the “Relative Volatility” value in series [2] (setting [7]) is reported as 1.5.
Consider `CCOCCOC(C)=O` [Ethylene glycol ethyl ether acetate], for which the entries for the “Relative Volatility” value in series [2] (setting [7]) and in series [1] were 1.5 and 2.5, respectively.
As to `CCCCCCOCCO` [Ethylene glycol hexyl ether], the “Relative Volatility” value in series [3] is 2.9; in series [1], 3.1.
In the same order, the values of `CCCCCCCO` [Heptyl alcohol] are 3.1 and 3.6.
Consider `CCCCCCOC(C)=O` [Hexyl acetate], for which the “Relative Volatility” value in series [3] amounted to 1.6; in series [4], 1.35.
With `CC(=O)OCCC(C)C` [Isoamyl acetate], the “Relative Volatility” value in series [2] (setting [9]) was 1.25.
`CC(=O)OCC(C)C` [Isobutyl acetate]: the “Relative Volatility” value in series [4] worked out at 1.35.
Regarding `CC(C)COC(=O)C(C)C` [Isobutyl isobutyrate], the “Relative Volatility” value came to 3.3 in series [2] (setting [9]), 1.5 in series [3] and 1.3 in series [4].
As to `CC(C)CCCCCCCO` [Isodecyl alcohol], the “Relative Volatility” value in series [3] (setting [8]) is recorded as 2.4; in series [1] (setting [6]) it was 2.3.
`CC(C)CCCCCO` [Isooctyl alcohol]: the “Relative Volatility” value amounted to 2.1 in series [2] (setting [9]), 2.4 in series [3] (setting [8]) and 2.5 in series [1].
Take `CC(=O)OC(C)C` [Isopropyl acetate]: the “Relative Volatility” value in series [2] (setting [9]) is 1.6.
With `COC(=O)c1ccccc1` [Methyl benzoate], in series [5], the “Relative Volatility” value was found to be 1.25.
Regarding `CC(=O)CCC(C)C` [Methyl isoamyl ketone], the “Relative Volatility” value is given as 2.0 in series [2] (setting [9]), 1.6 in series [3] (setting [8]) and 2.3 in series [1] (setting [6]).
Turning to `CC(=O)CC(C)C` [Methyl isobutyl ketone], the figures for the “Relative Volatility” value in series [5] and in series [2] (setting [9]) were 1.5 and 1.85, respectively.
Regarding `O=[N+]([O-])c1ccccc1` [Nitrobenzene], the “Relative Volatility” value in series [5] was 1.4; in series [3], 1.6; in series [1], 2.5.
Regarding `CC[N+](=O)[O-]` [Nitroethane], the “Relative Volatility” value came to 1.3 in series [4] and 2.8 in series [1].
As to `CC(=O)Oc1ccccc1` [Phenyl acetate], the “Relative Volatility” value in series [4] was 1.25.
For the compound `COCC(C)OC(C)=O` (centres unmarked) [Propylene glycol methyl ether acetate], the “Relative Volatility” value is 1.8 in series [3] and 2.3 in series [1] (setting [6]).
Turning to `OCC1CCCO1` (centres unmarked) [Tetrahydro furfuryl alcohol], the results for the “Relative Volatility” value in series [2] (setting [9]), in series [3] (setting [8]) and in series [1] (setting [6]) were 2.3, 3.2 and 3.3, respectively.
For the compound `CCCCCOC(C)=O` [n-Amyl acetate], in series [2] (setting [7]), the “Relative Volatility” value came to 1.85.
Still for that read-out and setting: the same measure for `CCCCOC(C)=O` [n-Butyl acetate]: 3.5.
For `CCCCCCCCCCO` [n-Decanol], the “Relative Volatility” value in series [3] (setting [8]) amounted to 2.3; in series [1], 2.5.
As for `CCCCCCOC=O` [n-Hexyl formate], the “Relative Volatility” value in series [2] (setting [9]) was 1.4; in series [3] it was 1.5; in series [1], 1.7.
Regarding `CCCOC(C)=O` [n-Propyl acetate], the “Relative Volatility” value in series [2] (setting [9]) was found to be 1.85.
For the compound Dipropylene glycol methyl ether, the results for the “Relative Volatility” value in series [2] (setting [9]) and in series [1] (setting [6]) were 1.85 and 4.3, respectively.
Consider Tripropylene glycol methyl ether, for which, in series [1] (setting [6]), the “Relative Volatility” value was determined as 3.2.
